Source: patent publication US10960007B2, “Pharmacologically active aryl-substituted pyrazolo[1,5-a]pyrimidine derivatives” (RICHTER GEDEON NYRT., priority 2017, dated 2021)

Legend:
[1] = Plasma and brain exposure after USV measurement; type: in vivo; conditions: rat, per os, about 75 min after treatment
Protocol: (§1) Under stressful conditions, adult rats emit 22 kHz ultrasounds that can be reduced by various pharmacological treatments (De Vry et al, Eur. J. Pharmacol. 1993, 249, 331-339; Sanchez, Eur. J. Pharmacol. 2003, 463, 133-143). […] Therefore, a foot shock-induced vocalization paradigm in adult rats was used to assess in vivo efficacy of centrally acting GABAB receptor ligands. Behavioral measurements were carried out on male Wistar rats (200-250 g, Toxicoop, Hungary). Rats were housed in groups of four in plastic cages with a wire grid top in a temperature and light-controlled laboratory animal care unit (22±2° C., 12-h light/dark cycle, lights on at 6:00 AM) with ad libitum access to commercial pellet rat food and tap water. Investigations were approved by the Local Ethical Committee of Gedeon Richter Plc. and were carried out in strict compliance with the European Directive 2010/63/EU regarding the care and use of laboratory animals for experimental procedures and all efforts were made to minimize the number of animals as well as their suffering. In order to evoke emission of ultrasounds, animals were footshocked after a habituation period of 30 s (6 shocks, 1 s, 0.8 mA each, inter-shock interval 10 s) in a sound attenuated shocking chamber (Experimetria, 40×40×80 cm). […] Vocalizations were measured right after the last footshock for 10 min with a Metris Sonotrack system and the total time of vocalizations was registered. Vocalization of parallel vehicle treated animals was considered as control value and inhibition percent was calculated for each compound. At approximately 75 min after treatment and behavioral measurements, blood and brain samples were harvested in order to determine exposures associated with in vivo activity.

GABAB receptor = target: T1, GABAB receptor (Rattus norvegicus, UniProt O88871+Q9Z0U4); assay: In vitro [35S]GTPγS binding assay in rat cortical membranes; type: biochemical; conditions: [35S]GTPγS binding, rat cortical membranes; read-out: In vitro PAM potency (PAM EC50)
T1 construct: from tissue; host or cells: rat brain cortex membranes
Protocol: In Vitro [^35S]GTPγS Binding Assay in Rat Cortical Membranes
Cortices of freshly harvested rat brains were dissected on an ice-cold surface and homogenized by a glass Dounce homogeniser immediately in ice-cold buffer containing 50 mM Tris, 5 mM MgCl2 and 1 mM EDTA (pH=7.6). Tissue homogenates were centrifuged at 40000 g for 15 min at 4° C. Membrane pellets were resuspended in the same buffer and membranes were incubated for 10 min at 30° C. in a shaking water bath to eliminate endogenous GABA. Homogenates were centrifuged again under the same conditions. The final pellets were resuspended in ice-cold buffer (pH=7.6) containing 50 mM Tris, 100 mM NaCl, 7 mM MgCl2, 1 mM EDTA and 1 mM dithiotreithol (DTT) to yield a concentration of 20 mg tissue weight/ml and frozen at −70° C. until use. The assay was done in a buffer containing 50 mM Tris (pH=7.4), 100 mM NaCl, 7 mM MgCl2, 1 mM EDTA and 1 mM DTT. Each assay tube contained 150 μL GDP (in a final concentration of 50 μM), 100 μL ligand and 125 μL of the membrane suspension (250 μg tissue/tube). The assay tubes were preincubated for 10 min at 30° C. to assure equilibrium. Nonspecific binding was determined in the presence of 10 μM GTPγS; basal binding was determined in the presence of buffer only. After addition of […] [^35S]GTPγS in a volume of 25 μL to the tubes, membranes were incubated for an additional 60 min at 30° C. The assay was terminated by rapid filtration through Packard UniFilter GF/B using a Packard harvester and washed four times with 1 ml ice-cold buffer. After drying the filters at 40° C. for 1 h, 40 μL Microscint (Packard) was added to the filters and radioactivity of the filters was determined by a TopCount NXT (PerkinElmer, Waltham, Mass.; Alper and Nelson, Eur. J. Pharmacol. 1998, 343, 303-312; Rinken et al, Biochem. Pharmacol. 1999, 57, 155-162). Data thus gathered were used to determine PAM EC50 values for each compound as primary in vitro activity end point.

adult rats = assay: Foot shock-induced ultrasonic vocalization (USV) in adult rats; type: in vivo, rat; conditions: Rattus norvegicus, po; 10 mg/kg per os, 1 h before shocking, male Wistar rats
Protocol: Foot Shock-Induced Ultrasonic Vocalization (USV) in Adult Rats
as §1

T1 sequence (O88871 41-940): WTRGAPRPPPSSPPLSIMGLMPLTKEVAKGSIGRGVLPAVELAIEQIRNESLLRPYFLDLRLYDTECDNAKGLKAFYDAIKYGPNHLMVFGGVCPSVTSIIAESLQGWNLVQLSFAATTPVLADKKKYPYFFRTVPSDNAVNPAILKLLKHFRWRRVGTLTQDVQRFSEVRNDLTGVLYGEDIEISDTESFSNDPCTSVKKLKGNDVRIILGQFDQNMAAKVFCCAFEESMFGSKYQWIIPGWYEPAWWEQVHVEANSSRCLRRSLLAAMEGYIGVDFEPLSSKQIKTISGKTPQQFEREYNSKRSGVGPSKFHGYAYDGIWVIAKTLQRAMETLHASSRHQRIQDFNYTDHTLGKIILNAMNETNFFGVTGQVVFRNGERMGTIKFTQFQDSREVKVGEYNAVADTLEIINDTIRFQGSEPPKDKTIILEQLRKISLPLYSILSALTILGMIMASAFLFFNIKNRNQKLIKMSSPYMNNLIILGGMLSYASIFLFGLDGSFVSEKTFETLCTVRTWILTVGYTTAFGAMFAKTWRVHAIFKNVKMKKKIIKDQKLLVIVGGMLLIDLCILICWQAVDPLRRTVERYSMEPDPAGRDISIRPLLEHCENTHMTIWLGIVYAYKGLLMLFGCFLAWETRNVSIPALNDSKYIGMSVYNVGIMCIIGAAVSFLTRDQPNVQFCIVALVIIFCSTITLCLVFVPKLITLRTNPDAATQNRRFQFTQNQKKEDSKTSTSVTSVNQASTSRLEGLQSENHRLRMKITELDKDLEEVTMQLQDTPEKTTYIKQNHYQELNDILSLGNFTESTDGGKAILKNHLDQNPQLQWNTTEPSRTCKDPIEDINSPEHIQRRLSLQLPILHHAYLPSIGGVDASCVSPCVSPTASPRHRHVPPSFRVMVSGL
T1 sequence (Q9Z0U4 17-960 limits assumed): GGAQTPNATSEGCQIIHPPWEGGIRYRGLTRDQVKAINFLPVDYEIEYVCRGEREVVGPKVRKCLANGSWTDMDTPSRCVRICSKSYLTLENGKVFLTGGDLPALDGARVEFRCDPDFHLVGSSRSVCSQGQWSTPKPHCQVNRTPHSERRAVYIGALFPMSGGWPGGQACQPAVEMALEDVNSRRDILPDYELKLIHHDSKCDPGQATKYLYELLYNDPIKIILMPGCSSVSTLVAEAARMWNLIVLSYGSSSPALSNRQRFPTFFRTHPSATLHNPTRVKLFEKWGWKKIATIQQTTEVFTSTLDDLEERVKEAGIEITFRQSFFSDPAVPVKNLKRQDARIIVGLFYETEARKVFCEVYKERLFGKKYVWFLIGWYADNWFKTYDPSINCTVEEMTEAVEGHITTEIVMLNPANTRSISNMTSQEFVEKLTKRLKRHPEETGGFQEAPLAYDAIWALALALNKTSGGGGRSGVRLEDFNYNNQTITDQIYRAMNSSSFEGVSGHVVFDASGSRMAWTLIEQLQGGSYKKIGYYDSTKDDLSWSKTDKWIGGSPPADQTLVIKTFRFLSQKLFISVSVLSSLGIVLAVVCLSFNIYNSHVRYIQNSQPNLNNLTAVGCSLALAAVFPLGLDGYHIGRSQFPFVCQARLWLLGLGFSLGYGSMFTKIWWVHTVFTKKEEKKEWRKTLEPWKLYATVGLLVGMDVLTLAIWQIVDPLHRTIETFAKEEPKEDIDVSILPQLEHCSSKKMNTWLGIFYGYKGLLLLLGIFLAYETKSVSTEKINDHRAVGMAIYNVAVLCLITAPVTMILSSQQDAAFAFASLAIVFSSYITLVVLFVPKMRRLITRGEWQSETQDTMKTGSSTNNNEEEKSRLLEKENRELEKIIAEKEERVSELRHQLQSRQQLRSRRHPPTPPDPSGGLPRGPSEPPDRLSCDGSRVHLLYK

Brain exposure at 1 mg/kg ([1]; formulation Tween) [ng/g] | Plasma exposure at 1 mg/kg ([1]; formulation Tween) [ng/mL] | EC50 (GABAB receptor) [µM] | Brain exposure at 1 mg/kg ([1]; formulation SpD1) [ng/g] | Plasma exposure at 1 mg/kg ([1]; formulation SpD1) [ng/mL] | SMILES | inhibition in vivo at 10 mg/kg (adult rats) [%]
395 | 358 | 0.01 to 0.1 |  |  | Cc1nc2cc(-c3ccc(Cl)cc3)nn2c(N2CCCC(C(=O)O)(C(C)C)C2)c1C(C)C (stereo not drawn) [Example 3, 1-[2-(4-Chlorophenyl)-5-methyl-6-(propan-2-yl)pyrazolo[1,5-a]pyrimidin-7-yl]-3-(propan-2-yl)piperidine-3-carboxylic acid] | 58
 |  | 0.01 to 0.1 | 857 | 1472 | CC[C@]1(C(=O)O)CCCN(c2c(C(C)C)c(C)nc3cc(-c4ccc(Cl)cc4)nn23)C1 [Example 5, (3S)-1-[2-(4-Chlorophenyl)-5-methyl-6-(propan-2-yl)pyrazolo[1,5-a]pyrimidin-7-yl]-3-ethylpiperidine-3-carboxylic acid] | 37
1326 | 1453 | 0.01 to 0.1 |  |  | CC[C@]1(C(=O)O)CCCN(c2c(C(C)C)c(C)nc3cc(-c4ccc(C(F)(F)F)cc4)nn23)C1 [Example 6, (3S)-3-Ethyl-1-[5-methyl-6-(propan-2-yl)-2-[4-(trifluoromethyl)phenyl]pyrazolo[1,5-a]pyrimidin-7-yl]piperidine-3-carboxylic acid] | 90
1193 | 298 |  |  |  | CC[C@@]1(C(=O)O)CCCN(c2c(C(C)C)c(C)nc3cc(-c4ccc(C(F)(F)F)cc4F)nn23)C1 [Example 8, (3R)-3-Ethyl-1-{2-[2-fluoro-4-(trifluoromethyl)phenyl]-5-methyl-6-(propan-2-yl)pyrazolo[1,5-a]pyrimidin-7-yl}piperidine-3-carboxylic acid] | 60
 |  | 0.01 to 0.1 | 1849 | 1807 | Cc1nc2cc(-c3ccc(Cl)cc3)nn2c(N2CCC[C@](C(=O)O)(C(C)C)C2)c1C(C)C [Example 9, (3S)-1-[2-(4-Chlorophenyl)-5-methyl-6-(propan-2-yl)pyrazolo[1,5-a]pyrimidin-7-yl]-3-(propan-2-yl)piperidine-3-carboxylic acid] | 39
218 | 283 | 0.001 to 0.01 |  |  | Cc1nc2cc(-c3ccc(C(F)(F)F)cc3)nn2c(N2CCC[C@](C)(C(=O)O)C2)c1C(C)C [Example 12, (3S)-3-Methyl-1-[5-methyl-6-(propan-2-yl)-2-[4-(trifluoromethyl)phenyl]pyrazolo[1,5-a]pyrimidin-7-yl]piperidine-3-carboxylic acid] | 63
 |  | 0.01 to 0.1 | 1962 | 2323 | CC[C@]1(C(=O)O)CCCN(c2c(C(C)C)c(C)nc3cc(-c4ccc(C(F)(F)F)c(F)c4)nn23)C1 [Example 14, (3S)-3-Ethyl-1-{2-[3-fluoro-4-(trifluoromethyl)phenyl]-5-methyl-6-(propan-2-yl)pyrazolo[1,5-ala]pyrimidin-7-yl}piperidine-3-carboxylic acid] | 47
28 | 103 | 0.01 to 0.1 |  |  | COCC1(C(=O)O)CCCN(c2c(C(C)C)c(C)nc3cc(-c4ccc(C(F)(F)F)cc4)nn23)C1 (stereo not drawn) [Example 16] | 41
 |  | 0.01 to 0.1 | 1093 | 1275 | CCC1(C(=O)O)CCCN(c2c(C(C)C)c(C)nc3cc(-c4ccc(Cl)cc4)nn23)C1 (stereo not drawn) [Example 20] | 
 |  | 0.01 to 0.1 |  |  | CC[C@@]1(C(=O)O)CCCN(c2c(C(C)C)c(C)nc3cc(-c4ccc(Cl)cc4)nn23)C1 [Example 21] | 
 |  | 0.01 to 0.1 |  |  | Cc1nc2cc(-c3ccc(Cl)cc3)nn2c(N2CCC[C@@](C(=O)O)(C(C)C)C2)c1C(C)C [Example 22] | 

Second part, the molecule before the results:

SMILES | Brain exposure at 1 mg/kg ([1]; formulation Tween) [ng/g] | Plasma exposure at 1 mg/kg ([1]; formulation Tween) [ng/mL] | EC50 (GABAB receptor) [µM] | Brain exposure at 1 mg/kg ([1]; formulation SpD1) [ng/g] | Plasma exposure at 1 mg/kg ([1]; formulation SpD1) [ng/mL] | inhibition in vivo at 10 mg/kg (adult rats) [%]
CC[C@]1(C(=O)O)CCCN(c2c(C(C)C)c(C)nc3cc(-c4ccc(C(F)(F)F)cc4F)nn23)C1 [Example 7, (3S)-3-Ethyl-1-{2-[2-fluoro-4-(trifluoromethyl)phenyl]-5-methyl-6-(propan-2-yl)pyrazolo[1,5-a]pyrimidin-7-yl}piperidine-3-carboxylic acid] | 332 | 506 | 0.001 to 0.01 |  |  | 90
Cc1nc2cc(-c3ccc(C(F)(F)F)cc3)nn2c(N2CCC[C@](C(=O)O)(C(C)C)C2)c1C(C)C [Example 10, (3S)-1-[5-Methyl-6-(propan-2-yl)-2-[4-(trifluoromethyl)phenyl]pyrazolo[1,5-a]pyrimidin-7-yl]-3-(propan-2-yl)piperidine-3-carboxylic acid] | 150 | 36 | 0.001 to 0.01 |  |  | 30
Cc1nc2cc(-c3ccc(C(F)(F)F)cc3F)nn2c(N2CCC[C@@](C(=O)O)(C(C)C)C2)c1C(C)C [Example 11, (3R)-1-{2-[2-Fluoro-4-(trifluoromethyl)phenyl]-5-methyl-6-(propan-2-yl)pyrazolo[1,5-a]pyrimidin-7-yl}-3-(propan-2-yl)piperidine-3-carboxylic acid] | 165 | 326 | 0.001 to 0.01 |  |  | 15
Cc1nc2cc(-c3ccc(C(F)(F)F)cc3Cl)nn2c(N2CCC[C@](C)(C(=O)O)C2)c1C(C)C [Example 13, (3S)-1-{2-[2-Chloro-4-(trifluoromethyl)phenyl]-5-methyl-6-(propan-2-yl)pyrazolo[1,5-a]pyrimidin-7-yl}-3-methylpiperidine-3-carboxylic acid] | 424 | 843 | 0.001 to 0.01 |  |  | 90
CC[C@]1(C(=O)O)CCCN(c2c(C(C)C)c(C)nc3c(F)c(-c4ccc(C(F)(F)F)cc4)nn23)C1 [Example 15, (3S)-3-Ethyl-1-[3-fluoro-5-methyl-6-(propan-2-yl)-2-[4-(trifluoromethyl)phenyl]pyrazolo[1,5-a]pyrimidin-7-yl]piperidine-3-carboxylic acid] |  |  | 0.001 to 0.01 | 1377 | 1317 | 85
COCC1(C(=O)O)CCCN(c2c(C(C)C)c(C)nc3cc(-c4ccc(C(F)(F)F)cc4F)nn23)C1 (stereo not drawn) [Example 17, 1-{2-[2-Fluoro-4-(trifluoromethyl)phenyl]-5-methyl-6-(propan-2-yl)pyrazolo[1,5-a]pyrimidin-7-yl}-3-(methoxymethyl)piperidine-3-carboxylic acid] | 144 | 443 | 0.001 to 0.01 |  |  | 44
Cc1nc2cc(-c3ccc(Cl)cc3Cl)nn2c(N2CCC[C@](C(=O)O)(C(C)C)C2)c1C(C)C [Example 45] |  |  | 0.01 to 0.1 |  |  | 
Cc1nc2cc(-c3ccc(C(F)(F)F)c(F)c3)nn2c(N2CCC[C@@](C(=O)O)(C(C)C)C2)c1C(C)C [Example 58] |  |  | 0.01 to 0.1 |  |  | 
Cc1nc2c(F)c(-c3ccc(Cl)cc3)nn2c(N2CCCC(C(=O)O)C2)c1C(C)C (stereo not drawn) [Example 70] |  |  |  |  |  | 71
